Where a SMILES comes first, the peptide text is derived from it. Bridges are numbered along the chain shown (N, C = ends). [ ]: non-standard residue; d: D form. The star is where a group is joined. hPhe(3-Cl-4-CF3) = N[C@@H](CCc1ccc(C(F)(F)F)c(Cl)c1)C(=O)O; NPrPhe(4-CF3) = CCCN[C@@H](Cc1ccc(C(F)(F)F)cc1)C(=O)O; NMeGly(cPent) = CN[C@H](C(=O)O)C1CCCC1; Pro(4,4-F2) = O=C(O)[C@@H]1CC(F)(F)CN1; Hyp = O=C(O)[C@@H]1C[C@@H](O)CN1; NMeD = CN[C@@H](CC(=O)O)C(=O)O; NMeL = CN[C@@H](CC(C)C)C(=O)O; N(Me)CH2CH2OMe = COCCN(C)*; NMeA = CN[C@@H](C)C(=O)O; Ac5c = NC1(C(=O)O)CCCC1; Aze = O=C(O)[C@@H]1CCN1; Ac4c = NC1(C(=O)O)CCC1; Sar = CNCC(=O)O
Key:
[1] = biological target: GDP-bound NRAS wild-type protein (Homo sapiens, UniProt P01111); assay: Binding to NRAS by surface plasmon resonance (SPR), Single Cycle Kinetics; settings: KD ratio NRAS/KRAS, SPR
[2] = biological target: GDP-bound HRAS wild-type protein (Homo sapiens, UniProt P01112); assay: Binding to HRAS by surface plasmon resonance (SPR), Single Cycle Kinetics; settings: KD ratio HRAS/KRAS, SPR
Sequence of GDP-bound HRAS wild-type protein (P01112 whole entry): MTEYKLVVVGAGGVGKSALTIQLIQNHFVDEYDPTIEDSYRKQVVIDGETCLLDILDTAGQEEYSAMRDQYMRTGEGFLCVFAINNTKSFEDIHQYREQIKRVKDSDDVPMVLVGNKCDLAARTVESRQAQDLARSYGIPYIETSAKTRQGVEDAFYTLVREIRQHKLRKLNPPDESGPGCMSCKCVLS

Sequence of GDP-bound NRAS wild-type protein (P01111 whole entry): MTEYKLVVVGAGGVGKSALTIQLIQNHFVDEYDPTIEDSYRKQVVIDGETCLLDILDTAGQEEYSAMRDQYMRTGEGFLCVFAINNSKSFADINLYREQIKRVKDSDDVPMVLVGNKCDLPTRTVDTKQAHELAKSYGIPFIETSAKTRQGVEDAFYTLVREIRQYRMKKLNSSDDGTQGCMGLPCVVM

CCCN1C(=O)[C@@H]2CCN2C(=O)[C@H](C)N(C)C(=O)[C@H]([C@@H](C)CC)NC(=O)[C@H](CC(C)C)N(C)C(=O)C[C@@H](C(=O)N(C)C)NC(=O)[C@H](C2CCCC2)N(C)C(=O)C2(CCCC2)NC(=O)[C@@H]2CCCN2C(=O)[C@H](CCc2ccc(C(F)(F)F)c(Cl)c2)NC(=O)CN(C)C(=O)[C@@H]1Cc1ccc(C(F)(F)F)cc1 [PP0379] ([NMeL]I[NMeA][Aze][NPrPhe(4-CF3)][Sar][hPhe(3-Cl-4-CF3)]P[Ac5c][NMeGly(cPent)]D-NMe2; lactam N-11)
NRAS/KRAS (ratio of KD for GDP-bound NRAS wild-type to KD for KRAS) [1]: C (A compound having a KD ratio of 0.1 or more and less than 3 is denoted as C) | HRAS/KRAS (ratio of KD for GDP-bound HRAS wild-type to KD for KRAS) [2]: B (a compound having 3 or more and less than 10 is denoted as B)

CCCN1C(=O)[C@@H]2CCN2C(=O)[C@H](C)N(C)C(=O)[C@H]([C@@H](C)CC)NC(=O)[C@H](CC(C)C)N(C)C(=O)C[C@@H](C(=O)N(C)C)NC(=O)[C@H](C2CCCC2)N(C)C(=O)C2(CCC2)NC(=O)[C@@H]2CCCN2C(=O)[C@H](CCc2ccc(C(F)(F)F)c(Cl)c2)NC(=O)CN(C)C(=O)[C@@H]1Cc1ccc(C(F)(F)F)cc1 [PP0380] ([NMeL]I[NMeA][Aze][NPrPhe(4-CF3)][Sar][hPhe(3-Cl-4-CF3)]P[Ac4c][NMeGly(cPent)]D-NMe2; lactam N-11)
NRAS/KRAS (ratio of KD for GDP-bound NRAS wild-type to KD for KRAS) [1]: C (A compound having a KD ratio of 0.1 or more and less than 3 is denoted as C) | HRAS/KRAS (ratio of KD for GDP-bound HRAS wild-type to KD for KRAS) [2]: B (a compound having 3 or more and less than 10 is denoted as B)

CCCN1C(=O)[C@@H]2CCN2C(=O)[C@H](C)N(C)C(=O)[C@H]([C@@H](C)CC)NC(=O)[C@H](CC(C)C)N(C)C(=O)C[C@@H](C(=O)N(C)C)NC(=O)[C@H](C2CCCC2)N(C)C(=O)C2(CCCC2)NC(=O)[C@@H]2CC(F)(F)CN2C(=O)[C@H](CCc2ccc(C(F)(F)F)c(Cl)c2)NC(=O)CN(C)C(=O)[C@@H]1Cc1ccc(C(F)(F)F)cc1 [PP0381] ([NMeL]I[NMeA][Aze][NPrPhe(4-CF3)][Sar][hPhe(3-Cl-4-CF3)][Pro(4,4-F2)][Ac5c][NMeGly(cPent)]D-NMe2; lactam N-11)
NRAS/KRAS (ratio of KD for GDP-bound NRAS wild-type to KD for KRAS) [1]: C (A compound having a KD ratio of 0.1 or more and less than 3 is denoted as C) | HRAS/KRAS (ratio of KD for GDP-bound HRAS wild-type to KD for KRAS) [2]: B (a compound having 3 or more and less than 10 is denoted as B)

CCCN1C(=O)[C@@H]2CCN2C(=O)[C@H](C)N(C)C(=O)[C@H]([C@@H](C)CC)NC(=O)[C@H](CC(C)C)N(C)C(=O)C[C@@H](C(=O)N(C)C)NC(=O)[C@H](C2CCCC2)N(C)C(=O)C2(CCC2)NC(=O)[C@@H]2CC(F)(F)CN2C(=O)[C@H](CCc2ccc(C(F)(F)F)c(Cl)c2)NC(=O)CN(C)C(=O)[C@@H]1Cc1ccc(C(F)(F)F)cc1 [PP0382] ([NMeL]I[NMeA][Aze][NPrPhe(4-CF3)][Sar][hPhe(3-Cl-4-CF3)][Pro(4,4-F2)][Ac4c][NMeGly(cPent)]D-NMe2; lactam N-11)
NRAS/KRAS (ratio of KD for GDP-bound NRAS wild-type to KD for KRAS) [1]: C (A compound having a KD ratio of 0.1 or more and less than 3 is denoted as C) | HRAS/KRAS (ratio of KD for GDP-bound HRAS wild-type to KD for KRAS) [2]: B (a compound having 3 or more and less than 10 is denoted as B)

CCCN1C(=O)[C@@H]2CCN2C(=O)[C@H](C)N(C)C(=O)[C@H]([C@@H](C)CC)NC(=O)[C@H](CC(C)C)N(C)C(=O)C[C@@H](C(=O)N(C)C)NC(=O)[C@H](C2CCCC2)N(C)C(=O)C2(CCCC2)NC(=O)[C@@H]2C[C@@H](OCC)CN2C(=O)[C@H](CCc2ccc(C(F)(F)F)c(Cl)c2)NC(=O)CN(C)C(=O)[C@@H]1Cc1ccc(C(F)(F)F)cc1 [PP0383] ([NMeL]I[NMeA][Aze][NPrPhe(4-CF3)][Sar][hPhe(3-Cl-4-CF3)][Hyp](Et)[Ac5c][NMeGly(cPent)]D-NMe2; lactam N-11)
NRAS/KRAS (ratio of KD for GDP-bound NRAS wild-type to KD for KRAS) [1]: C (A compound having a KD ratio of 0.1 or more and less than 3 is denoted as C) | HRAS/KRAS (ratio of KD for GDP-bound HRAS wild-type to KD for KRAS) [2]: B (a compound having 3 or more and less than 10 is denoted as B)

CCCN1C(=O)[C@@H]2CCN2C(=O)[C@H](C)N(C)C(=O)[C@H]([C@@H](C)CC)NC(=O)[C@H](CC(C)C)N(C)C(=O)C[C@@H](C(=O)N(C)C)NC(=O)[C@H](C2CCCC2)N(C)C(=O)C2(CCC2)NC(=O)[C@@H]2C[C@@H](OCC)CN2C(=O)[C@H](CCc2ccc(C(F)(F)F)c(Cl)c2)NC(=O)CN(C)C(=O)[C@@H]1Cc1ccc(C(F)(F)F)cc1 [PP0384] ([NMeL]I[NMeA][Aze][NPrPhe(4-CF3)][Sar][hPhe(3-Cl-4-CF3)][Hyp](Et)[Ac4c][NMeGly(cPent)]D-NMe2; lactam N-11)
NRAS/KRAS (ratio of KD for GDP-bound NRAS wild-type to KD for KRAS) [1]: C (A compound having a KD ratio of 0.1 or more and less than 3 is denoted as C) | HRAS/KRAS (ratio of KD for GDP-bound HRAS wild-type to KD for KRAS) [2]: B (a compound having 3 or more and less than 10 is denoted as B)

CCCN1C(=O)[C@@H]2CCN2C(=O)CN(C)C(=O)[C@H]([C@@H](C)CC)NC(=O)[C@H](CC(C)C)N(C)C(=O)C[C@@H](C(=O)N(C)C)NC(=O)[C@H](C2CCCC2)N(C)C(=O)C2(CCC2)NC(=O)[C@@H]2CCCN2C(=O)[C@H](CCc2ccc(C(F)(F)F)c(Cl)c2)NC(=O)CN(C)C(=O)[C@@H]1Cc1ccc(C(F)(F)F)cc1 [PP0386] ([NMeL]I[Sar][Aze][NPrPhe(4-CF3)][Sar][hPhe(3-Cl-4-CF3)]P[Ac4c][NMeGly(cPent)]D-NMe2; lactam N-11)
NRAS/KRAS (ratio of KD for GDP-bound NRAS wild-type to KD for KRAS) [1]: C (A compound having a KD ratio of 0.1 or more and less than 3 is denoted as C) | HRAS/KRAS (ratio of KD for GDP-bound HRAS wild-type to KD for KRAS) [2]: B (a compound having 3 or more and less than 10 is denoted as B)

CCCN1C(=O)[C@@H]2CCN2C(=O)CN(C)C(=O)[C@H]([C@@H](C)CC)NC(=O)[C@H](CC(C)C)N(C)C(=O)C[C@@H](C(=O)N(C)C)NC(=O)[C@H](C2CCCC2)N(C)C(=O)C2(CCCC2)NC(=O)[C@@H]2CC(F)(F)CN2C(=O)[C@H](CCc2ccc(C(F)(F)F)c(Cl)c2)NC(=O)CN(C)C(=O)[C@@H]1Cc1ccc(C(F)(F)F)cc1 [PP0387] ([NMeL]I[Sar][Aze][NPrPhe(4-CF3)][Sar][hPhe(3-Cl-4-CF3)][Pro(4,4-F2)][Ac5c][NMeGly(cPent)]D-NMe2; lactam N-11)
NRAS/KRAS (ratio of KD for GDP-bound NRAS wild-type to KD for KRAS) [1]: C (A compound having a KD ratio of 0.1 or more and less than 3 is denoted as C) | HRAS/KRAS (ratio of KD for GDP-bound HRAS wild-type to KD for KRAS) [2]: B (a compound having 3 or more and less than 10 is denoted as B)

CCCN1C(=O)[C@@H]2CCN2C(=O)CN(C)C(=O)[C@H]([C@@H](C)CC)NC(=O)[C@H](CC(C)C)N(C)C(=O)C[C@@H](C(=O)N(C)C)NC(=O)[C@H](C2CCCC2)N(C)C(=O)C2(CCC2)NC(=O)[C@@H]2CC(F)(F)CN2C(=O)[C@H](CCc2ccc(C(F)(F)F)c(Cl)c2)NC(=O)CN(C)C(=O)[C@@H]1Cc1ccc(C(F)(F)F)cc1 [PP0388] ([NMeL]I[Sar][Aze][NPrPhe(4-CF3)][Sar][hPhe(3-Cl-4-CF3)][Pro(4,4-F2)][Ac4c][NMeGly(cPent)]D-NMe2; lactam N-11)
NRAS/KRAS (ratio of KD for GDP-bound NRAS wild-type to KD for KRAS) [1]: C (A compound having a KD ratio of 0.1 or more and less than 3 is denoted as C) | HRAS/KRAS (ratio of KD for GDP-bound HRAS wild-type to KD for KRAS) [2]: B (a compound having 3 or more and less than 10 is denoted as B)

CCCN1C(=O)[C@@H]2CCN2C(=O)CN(C)C(=O)[C@H]([C@@H](C)CC)NC(=O)[C@H](CC(C)C)N(C)C(=O)C[C@@H](C(=O)N(C)C)NC(=O)[C@H](C2CCCC2)N(C)C(=O)C2(CCCC2)NC(=O)[C@@H]2C[C@@H](OCC)CN2C(=O)[C@H](CCc2ccc(C(F)(F)F)c(Cl)c2)NC(=O)CN(C)C(=O)[C@@H]1Cc1ccc(C(F)(F)F)cc1 [PP0389] ([NMeL]I[Sar][Aze][NPrPhe(4-CF3)][Sar][hPhe(3-Cl-4-CF3)][Hyp](Et)[Ac5c][NMeGly(cPent)]D-NMe2; lactam N-11)
NRAS/KRAS (ratio of KD for GDP-bound NRAS wild-type to KD for KRAS) [1]: C (A compound having a KD ratio of 0.1 or more and less than 3 is denoted as C) | HRAS/KRAS (ratio of KD for GDP-bound HRAS wild-type to KD for KRAS) [2]: B (a compound having 3 or more and less than 10 is denoted as B)

CCCN1C(=O)[C@@H]2CCN2C(=O)CN(C)C(=O)[C@H]([C@@H](C)CC)NC(=O)[C@H](CC(C)C)N(C)C(=O)C[C@@H](C(=O)N(C)C)NC(=O)[C@H](C2CCCC2)N(C)C(=O)C2(CCC2)NC(=O)[C@@H]2C[C@@H](OCC)CN2C(=O)[C@H](CCc2ccc(C(F)(F)F)c(Cl)c2)NC(=O)CN(C)C(=O)[C@@H]1Cc1ccc(C(F)(F)F)cc1 [PP0390] ([NMeL]I[Sar][Aze][NPrPhe(4-CF3)][Sar][hPhe(3-Cl-4-CF3)][Hyp](Et)[Ac4c][NMeGly(cPent)]D-NMe2; lactam N-11)
NRAS/KRAS (ratio of KD for GDP-bound NRAS wild-type to KD for KRAS) [1]: C (A compound having a KD ratio of 0.1 or more and less than 3 is denoted as C) | HRAS/KRAS (ratio of KD for GDP-bound HRAS wild-type to KD for KRAS) [2]: B (a compound having 3 or more and less than 10 is denoted as B)

CCCN1C(=O)CN(C)C(=O)CN(C)C(=O)[C@H]([C@@H](C)CC)NC(=O)[C@H](CC(C)C)N(C)C(=O)C[C@@H](C(=O)N(C)CCOC)N(C)C(=O)[C@H](C2CCCC2)N(C)C(=O)C2(CCCC2)NC(=O)[C@@H]2CCCN2C(=O)[C@H](CCc2ccc(C(F)(F)F)c(Cl)c2)NC(=O)CN(C)C(=O)[C@@H]1Cc1ccc(C(F)(F)F)cc1 [PP0391] ([NMeL]I[Sar][Sar][NPrPhe(4-CF3)][Sar][hPhe(3-Cl-4-CF3)]P[Ac5c][NMeGly(cPent)][NMeD]-{N(Me)CH2CH2OMe}; lactam N-11)
NRAS/KRAS (ratio of KD for GDP-bound NRAS wild-type to KD for KRAS) [1]: B (a compound having 3 or more and less than 10 is denoted as B) | HRAS/KRAS (ratio of KD for GDP-bound HRAS wild-type to KD for KRAS) [2]: B (a compound having 3 or more and less than 10 is denoted as B)

— patent publication US20250230193A1, “CYCLIC COMPOUND HAVING SELECTIVE KRAS INHIBITORY EFFECT ON HRAS AND NRAS” (CHUGAI SEIYAKU KABUSHIKI KAISHA, priority 2022, published 2025)
